Source: PubChem BioAssay (NCI)
Several values for one entry are separate records, joined by “and”; a condition that tells them apart may be missing. Equal values may be shown once.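 How tested: cells in 96-well plates exposed to compound for 48 hours at five concentrations. GI50 is the concentration that inhibits growth by half. TGI: total growth inhibition.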

What was measured:
Assay in all cases: growth of human tumour cells (NCI), 48 h
DLD-1 colon = system: DLD-1 colon
HOP-92 NSCLC = system: HOP-92 NSCLC
IGROV1 ovarian = system: IGROV1 ovarian
MALME-3M melanoma = system: MALME-3M melanoma
OVCAR-4 ovarian = system: OVCAR-4 ovarian
RPMI-8226 leukemia = system: RPMI-8226 leukemia
SF-539 CNS = system: SF-539 CNS
TK-10 renal = system: TK-10 renal
EKVX NSCLC = system: EKVX NSCLC
MDA-N = system: MDA-N

Row | SMILES | TGI (DLD-1 colon) [µM] | TGI (HOP-92 NSCLC) [µM] | TGI (IGROV1 ovarian) [µM] | TGI (MALME-3M melanoma) [µM] | TGI (OVCAR-4 ovarian) [µM] | TGI (RPMI-8226 leukemia) [µM] | TGI (SF-539 CNS) | TGI (TK-10 renal) [µM] | GI50 (EKVX NSCLC) [µM] | TGI (EKVX NSCLC) [µM] | GI50 (HOP-92 NSCLC) [µM] | GI50 (IGROV1 ovarian) [µM] | GI50 (MALME-3M melanoma) [µM] | GI50 (OVCAR-4 ovarian) [µM] | GI50 (RPMI-8226 leukemia) | GI50 (SF-539 CNS) [µM] | GI50 (TK-10 renal) [µM] | TGI (MDA-N) [µM] | GI50 (DLD-1 colon) [µM]
1 | CCCCN(CCCC)C(=O)C(=O)C(C)C(=O)CC (stereo not given) | > 100 | > 100 | > 100 | > 100 | > 100 | > 100 | > 100 µM | > 100 | – | – | – | – | – | – | – | – | – | – | –
2 | CC(=O)c1cc2c(c3ccsc13)-c1ccccc1CC2 | – | > 100 | > 100 | 55.2 | > 100 | 75 | > 100 µM | 83 | 6.37 | > 100 | 28.9 | 36 | 15.7 | > 100 | 25.8 µM | 27.9 | 25.4 | – | –
3 | Cc1cc(C)cc(Nc2ccc([N+](=O)[O-])c(NCCN3CCOCC3)n2)c1 | – | 24.3 | > 100 | > 100 | > 100 | > 100 | 0.00587 µM and 0.0564 µM | > 100 | – | > 100 | – | – | 16 | 0.002 | 0.00455 µM and 0.0366 µM | 0.0016 | 13 | – | –
4 | O=C(O)c1cc(Cc2ccc(O)c(C(=O)O)c2)ccc1O (tested in a mixture with another compound) | – | 6.3 | 20.6 | 23.9 | 29.2 | > 100 | 26.6 µM | 20.7 | 4.82 | 18 | 1.21 | 4.72 | 8.55 | 6.08 | 2.62 µM | 11.4 | 6.17 | – | –
5 | Cc1[nH]nc2c1C(=O)C=C(N(CCO)c1ccccc1)C2=O | > 100 | > 100 | > 100 | > 100 | – | > 100 | > 100 µM | > 100 | – | > 100 | – | – | – | – | – | – | – | – | –
6 | CCCCCCC#CC#Cc1cccc(=O)o1 | – | 8.92 | – | 3.79 | 23.1 | 27.3 | 12 µM | 8.23 | 13.8 | 31.7 | 3.24 | 2.35 | 1.56 | 9.12 | 1.72 µM | 3.19 | 2.67 | – | –
7 | C#Cc1cccc(Oc2ccc(NC(=O)CCl)cc2)c1 | – | > 82.5 | 42.4 | > 82.5 | > 82.5 | > 82.5 | > 82.5 µM | > 82.5 | > 82.5 | > 82.5 | > 82.5 | 5.85 | 37.3 | 33.3 | > 82.5 µM | > 82.5 | > 82.5 | – | –
8 | Oc1c(I)cc(-c2nc3ccccc3s2)cc1CN(Cc1ccccn1)Cc1ccccn1 | – | 5.45 | 9.06 | 4.79 | 5.58 | 3.03 | 0.903 µM | > 100 | 0.321 | > 100 | 0.273 | 0.517 | 0.288 | 0.231 | 0.385 µM | 0.246 | 0.46 | – | –
9 | COc1ccc(CC(NC(=O)[C@H](C)NC(=O)CN2CCOCC2)C(=O)N[C@@H](Cc2ccccc2)C(=O)[C@@]2(C)CO2)cc1 (stereo not given in full) | – | 0.758 | 7.3 | 1.41 | 0.856 | > 100 | 0.591 µM | 4.93 | 0.469 | > 100 | 0.227 | 0.409 | 0.281 | 0.228 | 0.0565 µM | 0.221 | 0.47 | – | –
10 | CCCCCCCCCCCCCC(=O)C(C)N (stereo not given) | – | 19.2 | 14 | 29.3 | 16.1 | 23.7 | 21.6 µM | 13.2 | 2.13 | 4.75 | 5.71 | 3.68 | 14 | 3.9 | 6.26 µM | 6.63 | 3.81 | – | –
11 | COc1ccc(C(=O)C(C(=O)C(=O)Nc2nccs2)c2ccc(OC)cc2)cc1 (stereo not given) | > 100 | > 100 | > 100 | > 100 | – | > 100 | > 100 µM | > 100 | – | – | – | – | – | – | – | – | – | – | –
12 | c1cc(-c2cn[nH]c2)cc(-c2cn[nH]c2)c1 | > 100 | > 100 | > 100 | – | > 100 | > 100 | 55.4 µM | > 100 | – | 58.6 | – | – | – | – | – | – | – | – | –
13 | NCCP(=O)(O)O | – | > 100 | > 100 | > 100 | > 100 | > 100 | – | > 100 | – | > 100 | – | – | – | – | – | – | – | > 100 | –
14 | COC(=O)C1(C2CC/C(C)=C/CC/C(C)=C/CC[C@@]3(C)O[C@@H]3C2)CC1 (stereo not given in full) | – | > 100 | > 72 | > 100 | > 100 | 48.4 | > 69.2 µM | > 100 | > 100 | > 100 | 27.3 | 30.3 | > 83.8 | > 100 | 16.9 µM | 35.2 | > 59.6 | – | –
15 | O=[N+]([O-])[O-].O=[N+]([O-])[O-].[Au].[Au].c1ccc([P-]c2ccccc2)cc1.c1ccc([P-]c2ccccc2)cc1 | > 100 | 51.5 | > 100 | 47 | – | > 100 | 77.7 µM | 53.6 | 33.4 | 63 | 26.6 | 46.2 | 19.8 | – | 14.3 µM | 43.9 | 23.3 | – | 47
16 | C1=C(c2ccccc2)C(c2ccc(OCCN3CCCCC3)cc2)Oc2ccccc21 (stereo not given) | – | 3.25 | 5.07 | 3.48 | 7.09 | 5.02 | 3.08 µM | 3.4 | 1.54 | 3.35 | 1.56 | 2.07 | 1.73 | 2.37 | 2.25 µM | 1.62 | 1.69 | – | –
17 | CC(C)(C)[Si](C)(C)OCC1C=CC(n2cnc3c(N)ncnc32)O1 (stereo not given) | – | 38.1 | > 100 | > 100 | > 100 | 58.3 | > 81.5 µM | > 100 | – | > 100 | – | – | – | – | – | – | – | 85.9 | –
